According to ChEMBL document CHEMBL3880411, “Multikinase inhibitors for use in the treatment of cancer” (2009):
Active and inactive are the calls of the source. The rule behind the calls is not given here.

How the values were obtained:
[1] = target: Dual specificity mitogen-activated protein kinase kinase 1 (Homo sapiens, UniProt Q02750); experiment: Inhibition of MEK1 (unknown origin) using ERK2 as substrate after 40 mins by ELISA
[2] = target: Nuclear factor NF-kappa-B complex (Homo sapiens) (UniProt Q00653+P19838+Q04206); experiment: Inhibition of NFkappaB (unknown origin); format: protein-complex assay
Chain of Nuclear factor NF-kappa-B complex (Homo sapiens) (P19838 whole entry, looked up): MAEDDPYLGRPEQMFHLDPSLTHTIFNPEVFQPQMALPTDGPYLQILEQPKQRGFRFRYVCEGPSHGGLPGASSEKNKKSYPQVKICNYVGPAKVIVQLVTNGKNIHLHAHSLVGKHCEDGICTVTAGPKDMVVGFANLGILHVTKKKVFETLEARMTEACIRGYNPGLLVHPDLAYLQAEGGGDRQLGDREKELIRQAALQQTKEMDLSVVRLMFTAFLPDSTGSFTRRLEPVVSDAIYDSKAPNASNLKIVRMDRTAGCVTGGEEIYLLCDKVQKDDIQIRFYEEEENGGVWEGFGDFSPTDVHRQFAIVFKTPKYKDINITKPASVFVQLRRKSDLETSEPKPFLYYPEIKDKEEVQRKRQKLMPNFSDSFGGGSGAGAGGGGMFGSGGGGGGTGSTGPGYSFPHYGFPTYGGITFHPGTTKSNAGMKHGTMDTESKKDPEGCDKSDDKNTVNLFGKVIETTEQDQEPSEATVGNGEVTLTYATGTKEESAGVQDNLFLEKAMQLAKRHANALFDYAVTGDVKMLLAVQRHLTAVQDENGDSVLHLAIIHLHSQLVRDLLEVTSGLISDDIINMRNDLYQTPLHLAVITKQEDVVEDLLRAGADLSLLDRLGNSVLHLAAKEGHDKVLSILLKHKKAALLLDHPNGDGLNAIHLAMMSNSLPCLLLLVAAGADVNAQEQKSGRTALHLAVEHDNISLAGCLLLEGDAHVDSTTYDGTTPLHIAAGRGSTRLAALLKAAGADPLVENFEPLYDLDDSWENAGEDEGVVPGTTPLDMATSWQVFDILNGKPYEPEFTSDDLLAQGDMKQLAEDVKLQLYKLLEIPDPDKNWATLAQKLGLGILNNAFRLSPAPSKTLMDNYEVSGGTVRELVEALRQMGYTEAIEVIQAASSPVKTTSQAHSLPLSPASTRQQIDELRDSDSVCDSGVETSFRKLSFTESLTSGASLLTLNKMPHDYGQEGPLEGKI
Chain of Nuclear factor NF-kappa-B complex (Homo sapiens) (Q00653 whole entry, looked up): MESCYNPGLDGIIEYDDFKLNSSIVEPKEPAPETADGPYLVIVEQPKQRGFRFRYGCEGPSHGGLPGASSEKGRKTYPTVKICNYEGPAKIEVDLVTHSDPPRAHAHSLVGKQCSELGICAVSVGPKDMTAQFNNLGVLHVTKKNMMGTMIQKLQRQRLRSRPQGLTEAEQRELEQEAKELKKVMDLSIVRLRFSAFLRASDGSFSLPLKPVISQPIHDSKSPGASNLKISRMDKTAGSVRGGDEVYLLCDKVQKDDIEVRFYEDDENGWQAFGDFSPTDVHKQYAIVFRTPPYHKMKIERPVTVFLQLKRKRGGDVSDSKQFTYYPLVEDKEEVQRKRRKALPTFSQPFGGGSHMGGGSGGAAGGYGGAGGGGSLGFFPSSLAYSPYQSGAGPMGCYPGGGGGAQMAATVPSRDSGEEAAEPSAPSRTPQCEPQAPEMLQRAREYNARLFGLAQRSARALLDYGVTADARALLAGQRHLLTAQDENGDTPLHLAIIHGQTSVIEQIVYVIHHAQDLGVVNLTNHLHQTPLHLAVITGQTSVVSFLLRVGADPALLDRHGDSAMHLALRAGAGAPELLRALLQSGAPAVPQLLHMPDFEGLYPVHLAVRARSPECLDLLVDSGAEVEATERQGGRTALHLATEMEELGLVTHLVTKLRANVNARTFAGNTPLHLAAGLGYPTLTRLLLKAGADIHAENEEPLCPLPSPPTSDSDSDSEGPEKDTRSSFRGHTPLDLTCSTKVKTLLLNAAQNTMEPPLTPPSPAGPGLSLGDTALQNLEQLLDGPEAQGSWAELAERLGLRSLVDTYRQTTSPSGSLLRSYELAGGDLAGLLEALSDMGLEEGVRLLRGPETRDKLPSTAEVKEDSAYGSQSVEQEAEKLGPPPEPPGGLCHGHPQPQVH
Chain of Nuclear factor NF-kappa-B complex (Homo sapiens) (Q04206 whole entry, looked up): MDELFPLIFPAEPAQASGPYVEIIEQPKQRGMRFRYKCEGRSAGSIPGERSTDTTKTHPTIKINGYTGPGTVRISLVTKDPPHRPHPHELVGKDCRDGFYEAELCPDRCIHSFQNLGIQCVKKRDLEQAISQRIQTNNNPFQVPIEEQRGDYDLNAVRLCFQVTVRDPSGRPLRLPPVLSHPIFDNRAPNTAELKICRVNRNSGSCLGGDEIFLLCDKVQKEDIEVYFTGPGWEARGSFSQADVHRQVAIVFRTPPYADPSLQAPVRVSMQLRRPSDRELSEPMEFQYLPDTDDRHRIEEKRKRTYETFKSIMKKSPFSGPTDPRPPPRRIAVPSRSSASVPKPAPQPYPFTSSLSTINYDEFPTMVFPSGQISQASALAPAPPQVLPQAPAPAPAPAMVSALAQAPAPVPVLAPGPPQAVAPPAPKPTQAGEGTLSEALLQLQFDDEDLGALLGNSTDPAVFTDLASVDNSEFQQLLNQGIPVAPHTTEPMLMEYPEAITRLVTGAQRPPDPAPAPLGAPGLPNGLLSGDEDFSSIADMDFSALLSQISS

Chain of Dual specificity mitogen-activated protein kinase kinase 1 (Q02750 whole entry): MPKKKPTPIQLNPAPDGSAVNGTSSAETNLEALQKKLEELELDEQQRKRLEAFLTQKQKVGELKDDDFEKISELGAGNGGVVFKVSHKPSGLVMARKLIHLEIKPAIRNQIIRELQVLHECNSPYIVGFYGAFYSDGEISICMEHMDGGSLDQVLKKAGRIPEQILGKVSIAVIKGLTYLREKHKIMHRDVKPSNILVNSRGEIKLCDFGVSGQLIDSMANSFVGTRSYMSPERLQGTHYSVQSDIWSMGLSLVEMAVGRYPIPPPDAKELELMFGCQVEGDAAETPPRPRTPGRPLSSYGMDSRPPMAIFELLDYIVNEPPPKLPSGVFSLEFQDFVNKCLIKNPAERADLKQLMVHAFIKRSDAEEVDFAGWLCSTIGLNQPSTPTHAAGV

Row | SMILES | IC50 [1] [nM] | inhibition [2]
1 | C[C@@H]1/C=C\C(=O)[C@@H](O)[C@@H](O)C/C=C/c2cc(NCC(O)CO)cc(O)c2C(=O)O[C@H]1C (some centres undefined) | 56 to 101 | Active
2 | C[C@@H]1/C=C\C(=O)[C@@H](O)[C@@H](O)C/C=C/c2cc(CCCn3ccnc3)cc(O)c2C(=O)O[C@H]1C | 9.5 to 37 | Active
3 | COCCNc1cc(O)c2c(c1)/C=C/C[C@H](O)[C@H](O)C(=O)/C=C\[C@@H](C)[C@H](C)OC2=O | 172 | Active
4 | C[C@@H]1/C=C\C(=O)[C@@H](O)[C@@H](O)C/C=C/c2cc(NCCNCC(O)CO)cc(O)c2C(=O)O[C@H]1C (some centres undefined) | 658 | Active
5 | CCNc1cc(O)c2c(c1)/C=C/C[C@H](OC(=O)C(F)(F)F)[C@@H](O)C(=O)/C=C\[C@@H](C)[C@H](C)OC2=O | 79 | Active
6 | C[C@@H]1/C=C\C(=O)[C@@H](O)[C@@H](O)C/C=C/c2cc(NCC3CCNCC3)cc(O)c2C(=O)O[C@H]1C | 356 | Active
7 | CNc1cc(O)c2c(c1)/C=C/C[C@H](O)[C@@H](O)C(=O)/C=C\[C@@H](C)[C@H](C)OC2=O | – | Active
8 | COCCOCCOCCNCNc1cc(O)c2c(c1)/C=C/C[C@H](O)[C@H](O)C(=O)/C=C\[C@@H](C)[C@H](C)OC2=O | 756 | Active
9 | CCNc1cc(O)c2c(c1)/C=C/C[C@@H]1OC(=O)O[C@@H]1C(=O)/C=C\[C@@H](C)[C@H](C)OC2=O | 145 | Active
10 | CNC(=O)CNc1cc(O)c2c(c1)/C=C/C[C@H](O)[C@H](O)C(=O)/C=C\[C@@H](C)[C@H](C)OC2=O | 657 | Active
11 | C[C@@H]1/C=C\C(=O)[C@@H](O)[C@@H](O)C/C=C/c2cc(N(CCNCC(O)CO)C(=O)OC(C)(C)C)cc(O)c2C(=O)O[C@H]1C (some centres undefined) | – | Active
12 | C[C@@H]1/C=C\C(=O)[C@@H](O)[C@@H](O)C/C=C/c2cc(N3CCNC3=O)cc(O)c2C(=O)O[C@H]1C | 484 | Active
13 | C[C@@H]1/C=C\C(=O)[C@@H](O)[C@@H](O)C/C=C/c2cc(NCC(=O)N(C)C)cc(O)c2C(=O)O[C@H]1C | 318 | Active
14 | CCNc1cc(O)c2c(c1)/C=C/C[C@H](O)[C@@H](O)C(=O)/C=C/[C@@H](C)[C@H](C)OC2=O | – | Active
15 | C[C@@H]1/C=C\C(=O)[C@@H](O)[C@@H](O)C/C=C/c2cc(N3CCOC3=O)cc(O)c2C(=O)O[C@H]1C | 187 | Active
16 | C[C@@H]1/C=C\C(=O)[C@@H](O)[C@@H](O)C/C=C/c2cc(NCCN3CCCC3)cc(O)c2C(=O)O[C@H]1C | 356 to 640 | Active
17 | C[C@@H]1/C=C\C(=O)[C@@H](O)[C@@H](O)C/C=C/c2cc(NOCC(=O)O)cc(O)c2C(=O)O[C@H]1C | > 330 | Active
18 | CNc1cc(O)c2c(c1)/C=C/C[C@H](O)[C@@H](O)C(=O)/C=C/[C@@H](C)[C@H](C)OC2=O | – | Active
19 | C[C@@H]1/C=C\C(=O)[C@@H](O)[C@@H](O)C/C=C/c2cc(NCCO)cc(O)c2C(=O)O[C@H]1C | 91 to 198 | Active
20 | C[C@@H]1/C=C\C(=O)[C@@H](O)[C@@H](O)C/C=C/c2cc(NCCn3ccnc3)cc(O)c2C(=O)O[C@H]1C | 120 | Active
21 | C[C@@H]1/C=C\C(=O)[C@@H](O)[C@@H](O)C/C=C/c2cc(NCCN3CCOCC3)cc(O)c2C(=O)O[C@H]1C | 91 to 101 | Active
22 | C[C@@H]1/C=C\C(=O)[C@@H](O)[C@@H](O)C/C=C/c2cc(NOC[C@H](O)CO)cc(O)c2C(=O)O[C@H]1C | 187 | Active
23 | CCNc1cc(O)c2c(c1)C#CC[C@H](O)[C@H](O)C(=O)/C=C\[C@@H](C)[C@H](C)OC2=O | 182 | Active
24 | C[C@@H]1/C=C\C(=O)[C@@H](O)[C@@H](O)C/C=C/c2cc(NCCOP(=O)(O)O)cc(O)c2C(=O)O[C@H]1C | > 330 | Active
25 | C[C@@H]1/C=C\C(=O)[C@@H](O)[C@@H](O)C/C=C/c2cc(NCCN3CCN(C)CC3)cc(O)c2C(=O)O[C@H]1C | 471 to 946 | Active
26 | C[C@@H]1/C=C\C(=O)[C@@H](O)[C@@H](O)C/C=C/c2cc(NCC(=O)O)cc(O)c2C(=O)O[C@H]1C | 366 | Active
27 | C[C@@H]1/C=C\C(=O)[C@@H](O)[C@@H](O)C/C=C/c2cc(NCC(N)=O)cc(O)c2C(=O)O[C@H]1C | 99 to 310 | Active
28 | C[C@@H]1/C=C\C(=O)[C@@H](O)[C@@H](O)C/C=C/c2cc(NC3CC3)cc(O)c2C(=O)O[C@H]1C | 657 | Active
29 | C[C@@H]1/C=C\C(=O)[C@@H](O)[C@@H](O)C/C=C/c2cc(NCCNCCO)cc(O)c2C(=O)O[C@H]1C | 846 | Active
